{"source": "patent US20230210858A1", "about": "“PODOSOMES AS A THERAPEUTIC TARGET FOR INTRACRANIAL ANEURYSM” (THE BOARD OF REGENTS OF THE UNIVERSITY OF TEXAS SYSTEM, priority 2022, published 2023)", "key": {"[1]": {"test_system": "Thsd1-deficient zebrafish", "assay": "Intracranial hemorrhage in thsd1 knockdown zebrafish embryos treated with SRC inhibitor (FIG. 8)", "format": "in vivo", "settings": "vs DMSO control, n>120 embryos, p<0.05, FIG. 8b", "experimental": "(§1) Anti-sense morpholinos against thsd1, atg5 or talin was injected into one-cell stage zebrafish singly or in combination to silence the gene accordingly. At day 2 to day 3, embryos will be checked under regular optical microscope. Embryos with intracranial hemorrhages will be counted and imaged by Olympus microscope.\nIntracranial aneurysm and hemorrhage are tightly associated with compromised cerebrovascular integrity. Recently, zebrafish have gained additional popularity as a vertebrate model organism for studying the cerebrovasculature. Since zebrafish embryos are transparent, intracranial hemorrhage can be directly observed using a standard microscope. Furthermore, zebrafish fecundity and rapid development permits rapid phenotypic evaluation as intracranial hemorrhage in zebrafish fry are detectable as early as 2-3 days post fertilization. Importantly, gain-of-function and loss-of-function approaches are well established in zebrafish that include morpholino and mRNA injections and more recently, through applications of CRISPR/Cas9 technology.\nFIGS. 8a-8b are experimental results depicting that loss-of-function of Thsd1 induces SRC-dependent intracranial hemorrhage in zebrafish, and treatment with a PP2 SRC inhibitor prevents intracranial hemorrhage in Thsd1-deficient zebrafish. […] FIG. 8b is a chart quantifying the number of embryos with intracranial hemorrhage (%)."}, "[2]": {"test_system": "thsd1-MO injected zebrafish embryos", "assay": "Hemorrhagic incidence in thsd1-MO injected zebrafish embryos (Table 5 constructs) treated with SRC inhibitors (FIG. 13)", "format": "in vivo", "experimental": "as §1\nSubsequently, the nucleic acid constructs encoding these sequences were introduced into zebrafish thsd1 by PCR mutagenesis. Specifically, the thsd1 variant or the WT sequence was subcloned into pCS2+ zebrafish vector for expression. These constructs were used as tools to study cerebrovascular integrity mediated by thsd1 WT and rare variants in the zebrafish animal model selected to model a human condition.\nAll embryos were injected by thsd1-MO and the hemorrhagic incidence was counted under microscope. For each injection, around 80-120 embryos were injected. *p<0.05, **p<0.01."}}}
{"smiles": "CC(C)(C)n1nc(-c2ccc(Cl)cc2)c2c(N)ncnc21", "note": "[PP2]", "values": [{"measurement": "number of embryos with intracranial hemorrhage (%)", "setting": "[1]", "value": "ameliorated Thsd1-dependent hemorrhage incidents"}, {"measurement": "hemorrhagic incidence (intracranial hemorrhage)", "setting": "[2]; 10 uM in embryo water at 1 dpf for 24 hours", "value": "rescued intracranial hemorrhage"}]}
{"smiles": "CN(C)S(=O)(=O)c1ccc2c(c1)/C(=C/c1cc3c([nH]1)CCCC3)C(=O)N2", "note": "[SU5565]", "values": [{"measurement": "hemorrhagic incidence (intracranial hemorrhage)", "setting": "[2]; 1 uM in embryo water at 1 dpf for 24 hours", "value": "rescued intracranial hemorrhage"}]}
